Experiment: Evaluation of hydrosolubility: presence or absence of precipitate in buffered solutions
Conditions: for hydrosolubility (presence or absence of precipitate): diluted from DMSO stock solution
Description: The hydrosolubility of the compounds was evaluated as a function of the presence or absence of precipitate in buffered solutions of the compounds in question at different concentrations.
These stock solutions were then diluted in a commercial PBS buffer in order to obtain a range of final concentrations between 1 mM and 50 μM. A compound was declared to be insoluble if a precipitate appeared and persisted after dilution.

Row | SMILES | appearance of stock solution in DMSO (100 mM in DMSO) | hydrosolubility (presence or absence of precipitate) (50 μM in PBS buffer) | hydrosolubility (presence or absence of precipitate) (100 μM in PBS buffer) | hydrosolubility (presence or absence of precipitate) (250 μM in PBS buffer) | hydrosolubility (presence or absence of precipitate) (500 μM in PBS buffer) | hydrosolubility (presence or absence of precipitate) (1 mM in PBS buffer)
1 | Cc1cc(=O)oc2cc(NC(=O)[C@@H](N)CC(C)C)ccc12 [AMC-Leu, reference compound] | cloudy solution |  |  |  |  | 
2 | Cc1cc(=O)oc2cc(OC(=O)N3CCNCC3CNC(=O)Cc3ccccc3)ccc12 (centres unmarked) [Compound 12, 4-methyl-2-oxo-2H-chromen-7-yl 2-((2-phenylacetamido)methyl)piperazine-1-carboxylate] |  | soluble | soluble | soluble | soluble | soluble
3 | Cc1cc(=O)oc2cc(OC(=O)N3CCCCC3CNC(=O)Cc3ccccc3)ccc12 (centres unmarked) [Compound 15, 4-methyl-2-oxo-2H-chromen-7-yl 2-((2-phenylacetamido)methyl)piperidine-1-carboxylate, reference compound] |  | insoluble | insoluble | insoluble | insoluble | insoluble
4 | CCCCCCCC(=O)OCC1CNCCN1C(=O)Oc1ccc2c(C)cc(=O)oc2c1 (centres unmarked) [Compound 21, 4-methyl-2-oxo-2H-chromen-7-yl 2-((octanoyloxy)methyl)piperazine-1-carboxylate] |  | soluble | soluble | soluble | insoluble | insoluble
5 | CCCCCCCC(=O)OCC1CN(CCCCS(=O)(=O)O)CCN1C(=O)Oc1ccc2c(C)cc(=O)oc2c1 (centres unmarked) [Compound 22, 4-(4-(((4-methyl-2-oxo-2H-chromen-7-yl)oxy)carbonyl)-3-((octanoyloxy)methyl)piperazin-1-yl)butane-1-sulfonic Acid] |  | soluble | soluble | soluble | soluble | soluble
6 | CCCCCCCC(=O)OCC1CCCCN1C(=O)Oc1ccc2c(C)cc(=O)oc2c1 (centres unmarked) [Compound 27, 4-methyl-2-oxo-2H-chromen-7-yl 2-((octanoyloxy)methyl)piperidine-1-carboxylate, reference compound] |  | soluble | soluble | insoluble | insoluble | insoluble

Further lines, results first:

Row | appearance of stock solution in DMSO (100 mM in DMSO) | hydrosolubility (presence or absence of precipitate) (50 μM in PBS buffer) | hydrosolubility (presence or absence of precipitate) (100 μM in PBS buffer) | hydrosolubility (presence or absence of precipitate) (250 μM in PBS buffer) | hydrosolubility (presence or absence of precipitate) (500 μM in PBS buffer) | hydrosolubility (presence or absence of precipitate) (1 mM in PBS buffer) | SMILES
7 |  | soluble | soluble | soluble | soluble | soluble | COCCOCCOCCn1cc(CCC(=O)N2CCN(C(=O)Oc3ccc4c(C)cc(=O)oc4c3)C(CNC(=O)Cc3ccccc3)C2)nn1 (centres unmarked) [Compound 31, 4-methyl-2-oxo-2H-chromen-7-yl 4-(3-(1-(2-(2-(2-methoxyethoxy)ethoxy)ethyl)-1H-1,2,3-triazol-4-yl)propanoyl)-2-((2-phenylacetamido)methyl)piperazine-1-carboxylate]
8 |  | soluble | soluble | soluble | soluble | soluble | COCCOCCOCCn1cc(CCC(=O)N2CCN(C(=O)Oc3ccc([N+](=O)[O-])cc3)C(CNC(=O)Cc3ccccc3)C2)nn1 (centres unmarked) [Compound 36, 4-nitrophenyl 4-(3-(1-(2-(2-(2-methoxyethoxy)ethoxy)ethyl)-1H-1,2,3-triazol-4-yl)propanoyl)-2-((2-phenylacetamido)methyl)piperazine-1-carboxylate]
9 |  | soluble | soluble | soluble | insoluble | insoluble | COCCOCCOCCn1cc(CCC(=O)N2CCN(C(=O)Oc3ccc(Cl)cc3-c3nc4ccc(Cl)cc4c(=O)[nH]3)C(CNC(=O)Cc3ccccc3)C2)nn1 (centres unmarked) [Compound 39, 4-chloro-2-(6-chloro-4-oxo-3,4-dihydroquinazolin-2-yl)phenyl 4-(3-(1-(2-(2-(2-methoxyethoxy)ethoxy)ethyl)-1H-1,2,3-triazol-4-yl)propanoyl)-2-((2-phenylacetamido)methyl)piperazine-1-carboxylate]
